Measurements published in patent US20230181522A1, “SOLID AND LIQUISOLID FORMULATIONS OF CORALLOPYRONIN A” (RHEINISCHE FRIEDRICH-WILHELMS-UNIVERSITÄT BONN, priority 2020, published 2023).

Key:
[1] = Biphasic dissolution test (BiPHa+); assay type: physicochemical; conditions: organic phase 1-decanol
Description: To simulate the gastrointestinal properties to obtain in vivo predictive results, the pH-profile, bile salt concentration and gastrointestinal passage time were adjusted in the aqueous phase to mimic human gut conditions. […] An organic phase of 1-decanol above the aqueous phase imitated the fraction absorbed from the gut. As a test model, the profile of a person without prior food intake was chosen. Therefore, FaSSIF-V2 medium, which represents the bile salts concentration of a fasted human was used. […] To generate an in-situ biorelevant aqueous medium for the fasted state, biorelevant surfactants, namely sodium-taurocholate (3 mM) and lecithin (0.2 mM), were added.
Prior to the start of the experiments, both phases, 1-decanol and the acidic aqueous phase, were saturated with each other.
After 30 min FaSSIF-V2 concentrate (sodium-taurocholate and lecithin) was added simultaneously to the addition of citrate-phosphate buffer (tri-potassium phosphate and potassium citrate) resulting in a first pH-shift from pH 1 to pH 5.5, simulating the duodenum. […] The adjusted buffers were titrated by 0.1 M NaOH and 0.1 M HCl (pH 5.5-6.8). The whole dissolution took 4.5 hours.

[2] = Pharmacokinetic analysis in vivo in BALB/c mice; design: species or system BALB/c female mice; conditions: PO, Example 13, compared to IV set to 100%
Protocol: Pharmacokinetic analysis was performed in vivo in fed BALB/c female mice (n=4) (Study DZIF11). The solid formulation was suspended right before administration in PBS (phosphate buffered saline; pH=7.4) and was administered via gavage (36 mg/kg CorA, 10 mL/kg). Blood samples from the vena facialis were collected after 5, 10, 15, 30, 180, and 480 min. The samples were centrifuges for 10 min at 4° C. and 15000 g. The generated plasma was mixed in a ration of 1:3 with ice-cold acetonitrile (Bernd Kraft GmbH, Duisburg). The mixture was vortexed for 10 sec and centrifuged for 25 min at 4° C. and 11600 g. […] For the gradient method starting from 70% A/30% B to 20% A/80% B stepwise within 30 min, the mobile phases A (acetonitrile/water (Bernd Kraft GmbH, Duisburg) 5/95 with 5 mM ammonium acetate (Merck KGaA, Darmstadt) and 40 μL acetic acid (Sigma-Aldrich Chemie GmbH, Steinheim) per Liter) and B (acetonitrile/water 95/5 with 5 mM ammonium acetate and 40 μL acetic acid per Liter) enabled to quantitate corallopyronin A precisely at 300 nm at a flow rate of 0.3 mL/min and a column temperature of 30° C. The samples were quantitated via external reference standard. The content of the corallopyronin A reference material was analyzed by ^1H-NMR.
Plasma concentration-time profiles were generated and pharmacokinetic parameters calculated. […]

[3] = Stability analysis (storage, CorA content by HPLC-DAD); assay type: physicochemical
Protocol: The stability of the spray dried amorphous formulation of corallopyronin A embedded in polyvinylpyrrolidone was analyzed after storing samples in drying cabinets at 25° C./60% relative humidity (RH) and under accelerated conditions at 40° C./75% RH for 7, 14, 28 days and 3 months. The samples were stored in closed twist-off glass vials under nitrogen and in the presence of silica desiccant. The content was analyzed by High-Performance Liquid Chromatography with Diode-Array Detection (HPLC-DAD). The samples were, therefore, dissolved in acetonitrile (Bernd Kraft GmbH, Duisburg). The HPLC measurements were performed on a Waters Alliance e2695 separation module connected to a waters 2998 PDA detector. A waters XBridge® Shield RP18, 3.5 μm, 2.1×100 mm, 130 A column was used. For the gradient method starting from 70% A/30% B to 20% A/80% B stepwise within 30 min, the mobile phases A (acetonitrile/water (Bernd Kraft GmbH, Duisburg) 5/95 with 5 mM ammonium acetate (Merck KGaA, Darmstadt) and 40 μL acetic acid (Sigma-Aldrich Chemie GmbH, Steinheim) per Liter) and B (acetonitrile/water 95/5 with 5 mM ammonium acetate and 40 μL acetic acid per liter) enabled to quantitate corallopyronin A precisely at 300 nm at a flow rate of 0.3 mL/min and a column temperature of 30° C. The samples were quantitated via external reference standard. The content of the corallopyronin A reference material was analyzed by ^1H-NMR. The following table 2 summarizes the results of the stability analysis.

[4] = Solubility of corallopyronin A in ethanol; assay type: physicochemical

With “methyl N-[(E)-5-[6-hydroxy-5-[(2E,4E,9Z,13E)-8-hydroxy-2,5,9-trimethylpentadeca-2,4,9,13-tetraenoyl]-4-oxopyran-2-yl]hex-1-enyl]carbamate [CorA]” the predicted absorption ([1]; FaSSIF-V2 fasted human, pH 1 to 5.5 to 6.8, 4.5 hours, about 10 mg CorA) was 7.7%, the “Maximum Partitioned Drug in the Organic Phase (%)” value ([1]; fasted human gut conditions, 4.5 h) was 8% and the “Absolute Bioavailability” value [2] was 11%. The “CorA Content” value ([3]; 3 months, 25° C., 60% RH, listed as Corallopyronin A) was 39%, the “CorA Content” value ([3]; 3 months, 25° C., 60% RH, listed as corallopyronin A) was “below 40%” and the “CorA Content” value ([3]; 3 months, 40° C., 75% RH, listed as Corallopyronin A) was 6%. The “CorA Content” value ([3]; 3 months, 40° C., 75% RH, listed as corallopyronin A) was “below 10%”, the “CorA Content” value ([3]; 7 days, 25° C., 60% RH, listed as Corallopyronin A) was 85% and the “CorA Content” value ([3]; 7 days, 25° C., 60% RH, listed as corallopyronin A) was “below 90%”. The “CorA Content” value ([3]; 7 days, 40° C., 75% RH, listed as Corallopyronin A) was 47%, the “CorA Content” value ([3]; 7 days, 40° C., 75% RH, listed as corallopyronin A) was “below 50%” and the “CorA Content” value ([3]; 14 days, 25° C., 60% RH) was 76%. For the same substance, the “CorA Content” value ([3]; 14 days, 40° C., 75% RH) was 31%, the “CorA Content” value ([3]; 28 days, 25° C., 60% RH) was 63% and the “CorA Content” value ([3]; 28 days, 40° C., 75% RH) was 17%. The “CorA Content” value ([3]; storage duration 0) was 99% and the “amount that can be dissolved in ethanol” value [4] was 100 mg/mL.
